Assay results reported in patent US20260217672A1, “BENZAMIDE COMPOUNDS FOR TREATMENT OF BACTERIAL INFECTIONS” (Hoffmann-La Roche Inc., priority 2022, published 2026).
Converted amounts (≈) assume the structure as drawn.

Legend:
[1] = system: Escherichia coli ATCC 25922; assay: Minimal Inhibitory Concentration (MIC) broth dilution assay; assay type: cell-based; details: ATCC25922, 20 h, read-out: MIC Escherichia coli ATCC 25922
Method: (§1) The antibacterial activity of the compounds of the present invention was evaluated against the commonly used quality control strain Escherichia coli ATCC 25922 and the rifampin-resistant mutant strain Klebsiella pneumonia ATCC 43816. Both were originally derived from human clinical samples and are available from ATCC (American Type Culture Collection). The in vitro potency of compounds to inhibit Escherichia coli (ATCC 25922) and Klebsiella pneumonia (ATCC 43816) growth was assessed by the MIC (Minimal Inhibitory Concentration) broth dilution method. Specifically compound dilutions were prepared from 10 mM DMSO stock solutions as follows: i) serial 2-fold dilution in 20 μL DMSO were prepared in a master plate (Greiner, Cat No: 651201), ii) 180 μL sterile distilled water was added to each aliquot and iii) 10 μL diluted compounds were transferred into a new assay plate (Costar, 3599).
(§2) Vials of each test microorganisms were maintained frozen in the vapor phase of a liquid nitrogen freezer. Single-use frozen vials of the two strains Escherichia coli ATCC 25922 (KWIKSTIK, 0335K) and Klebsiella pneumonia ATCC 43816, with predetermined CFU/mL, were taken out from the freezer, thawed at room temperature, and diluted in Cation-Adjusted Mueller Hinton Broth (CAMHB) to achieve a final inoculum of 5×10^5 CFU/mL. 90 μL bacteria containing broth was dispensed to the assay plate containing the pre-dispensed compound dilutions and mixed by pipetting 5 times.
(§3) Then the assay plates were incubated for 20 hours at 35° C. in ambient air. Following incubation, the MIC ([…]), the lowest concentration of drug that inhibits visible growth of the microorganism was read with the help of a magnification mirror and recorded.

[2] = system: Klebsiella pneumonia ATCC 43816; assay: as above; assay type: cell-based; details: Klebsiella pneumoniae, ATCC43816, 20 h, read-out: MIC Klebsiella pneumoniae ATCC43816
Method: as §1, §2, §3

SMILES | MIC [1] | MIC [2]
O=C(Nc1ccc(S(=O)(=O)N2CCN(c3cc(C(F)(F)F)cc(Cl)n3)CC2)cc1)c1cccc(N2C[C@H]3CN[C@H]3C2)c1 (stereo in doubt) [Example 052, N-[4-[4-[6-Chloro-4-(trifluoromethyl)-2-pyridyl]piperazin-1-yl]sulfonylphenyl]-3-[3,6-diazabicyclo[3.2.0]heptan-3-yl]benzamide] | 1.1 µg/mL (≈ 1.77 µM) | 2.3 µg/mL (≈ 3.7 µM)
NCCC1CCCN1Cc1ccc(C(=O)Nc2ccc(S(=O)(=O)N3CCN(c4cc(C(F)(F)F)cc(Cl)n4)CC3)cc2)cc1 (stereo in doubt) [Example 072, N-[4-[4-[6-chloro-4-(trifluoromethyl)-2-pyridyl]piperazin-1-yl]sulfonylphenyl]-4-[[(2S)-2-(2-aminoethyl)pyrrolidin-1-yl]methyl]benzamide] | 1 µg/mL (≈ 1.54 µM) | 2 µg/mL (≈ 3.07 µM)
NCCCNCc1ccc(C(=O)Nc2ccc(S(=O)(=O)N3CCN(c4cc(C(F)(F)F)ccn4)CC3)cc2)cc1 [Example 002, 4-[(3-Aminopropylamino)methyl]-N-[4-[4-[4-(trifluoromethyl)-2-pyridyl]piperazin-1-yl]sulfonylphenyl]benzamide] | 1.8 µg/mL (≈ 3.12 µM) | 5.4 µg/mL (≈ 9.36 µM)
NCCCNCc1ccc(C(=O)Nc2ccc(S(=O)(=O)N3CCN(c4cc(C(F)(F)F)c(Cl)cn4)CC3)cc2)cc1 [Example 003, 4-[(3-Aminopropylamino)methyl]-N-[4-[4-[5-chloro-4-(trifluoromethyl)-2-pyridyl]piperazin-1-yl]sulfonylphenyl]benzamide] | 1.4 µg/mL (≈ 2.29 µM) | 3.8 µg/mL (≈ 6.22 µM)
NCCCNCc1ccc(C(=O)Nc2ccc(S(=O)(=O)N3CCN(c4cc(Cl)cc(C(F)(F)F)c4)CC3)cc2)cc1 [Example 004, 4-[(3-Aminopropylamino)methyl]-N-[4-[4-[3-chloro-5-(trifluoromethyl)phenyl]piperazin-1-yl]sulfonylphenyl]benzamide] | 1.9 µg/mL (≈ 3.11 µM) | 3.8 µg/mL (≈ 6.23 µM)
NCCCNCc1ccc(C(=O)Nc2ccc(S(=O)(=O)N3CCN(c4cc(C(F)(F)F)nc(Cl)n4)CC3)cc2)cc1 [Example 005, 4-[(3-Aminopropylamino)methyl]-N-[4-[4-[2-chloro-6-(trifluoromethyl)pyrimidin-4-yl]piperazin-1-yl]sulfonylphenyl]benzamide] | 1.9 µg/mL (≈ 3.1 µM) | 7.7 µg/mL (≈ 12.6 µM)
NCCCNCc1ccc(C(=O)Nc2ccc(S(=O)(=O)N3CCN(c4cc(C(F)(F)F)nc(N)n4)CC3)cc2)cc1 [Example 006, 4-[(3-Aminopropylamino)methyl]-N-[4-[4-[2-amino-6-(trifluoromethyl)pyrimidin-4-yl]piperazin-1-yl]sulfonylphenyl]benzamide] | 3.7 µg/mL (≈ 6.24 µM) | 15 µg/mL (≈ 25.3 µM)
NCCCNCc1ccc(C(=O)Nc2ccc(S(=O)(=O)N3CCN(c4cc(Br)cc(Cl)n4)CC3)cc2)cc1 [Example 007, 4-[(3-Aminopropylamino)methyl]-N-[4-[4-(4-bromo-6-chloro-2-pyridyl)piperazin-1-yl]sulfonylphenyl]benzamide] | 0.97 µg/mL (≈ 1.56 µM) | 0.97 µg/mL (≈ 1.56 µM)
NCCCNCc1ccc(C(=O)Nc2ccc(S(=O)(=O)N3CCN(c4cc(C(F)(F)F)c(C5CC5)cn4)CC3)cc2)cc1 [Example 008, 4-[(3-Aminopropylamino)methyl]-N-[4-[4-[5-cyclopropyl-4-(trifluoromethyl)-2-pyridyl]piperazin-1-yl]sulfonylphenyl]benzamide] |  | 7.7 µg/mL (≈ 12.5 µM)
NCCCNCc1ccc(C(=O)Nc2ccc(S(=O)(=O)N3CCN(c4cc(C(F)(F)F)cc(OC5CC5)n4)CC3)cc2)cc1 [Example 009, 4-[(3-Aminopropylamino)methyl]-N-[4-[4-[6-(cyclopropoxy)-4-(trifluoromethyl)-2-pyridyl]piperazin-1-yl]sulfonylphenyl]benzamide] | 5.4 µg/mL (≈ 8.53 µM) | 11 µg/mL (≈ 17.4 µM)
CCOc1cc(C(F)(F)F)cc(N2CCN(S(=O)(=O)c3ccc(NC(=O)c4ccc(CNCCCN)cc4)cc3)CC2)n1 [Example 010, 4-[(3-Aminopropylamino)methyl]-N-[4-[4-[6-ethoxy-4-(trifluoromethyl)-2-pyridyl]piperazin-1-yl]sulfonylphenyl]benzamide] | 5.3 µg/mL (≈ 8.54 µM) | 11 µg/mL (≈ 17.7 µM)
CCc1cc(C(F)(F)F)cc(N2CCN(S(=O)(=O)c3ccc(NC(=O)c4ccc(CNCCCN)cc4)cc3)CC2)n1 [Example 011, 4-[(3-Aminopropylamino)methyl]-N-[4-[4-[6-ethyl-4-(trifluoromethyl)-2-pyridyl]piperazin-1-yl]sulfonylphenyl]benzamide] | 3.8 µg/mL (≈ 6.28 µM) | 7.6 µg/mL (≈ 12.6 µM)
Cc1cnc(N2CCN(S(=O)(=O)c3ccc(NC(=O)c4ccc(CCNCCCN)cc4)cc3)CC2)cc1C(F)(F)F [Example 013, 4-[2-(3-Aminopropylamino)ethyl]-N-[4-[4-[5-methyl-4-(trifluoromethyl)-2-pyridyl]piperazin-1-yl]sulfonylphenyl]benzamide] | 0.94 µg/mL (≈ 1.55 µM) | 
NCCCNCCc1ccc(C(=O)Nc2ccc(S(=O)(=O)N3CCN(c4cc(Cl)c(Cl)cn4)CC3)cc2)cc1 [Example 014, 4-[2-(3-Aminopropylamino)ethyl]-N-[4-[4-(4,5-dichloro-2-pyridyl)piperazin-1-yl]sulfonylphenyl]benzamide] | 15 µg/mL (≈ 25.4 µM) | 30 µg/mL (≈ 50.7 µM)
N#Cc1cc(N2CCN(S(=O)(=O)c3ccc(NC(=O)c4ccc(CCNCCCN)cc4)cc3)CC2)nc(C(F)(F)F)c1 [Example 015, 4-[2-(3-Aminopropylamino)ethyl]-N-[4-[4-[4-cyano-6-(trifluoromethyl)-2-pyridyl]piperazin-1-yl]sulfonylphenyl]benzamide] | 1.9 µg/mL (≈ 3.09 µM) | 3.8 µg/mL (≈ 6.17 µM)
N#Cc1cc(C(F)(F)F)cc(N2CCN(S(=O)(=O)c3ccc(NC(=O)c4ccc(CCNCCCN)cc4)cc3)CC2)n1 [Example 016, 4-[2-(3-Aminopropylamino)ethyl]-N-[4-[4-[6-cyano-4-(trifluoromethyl)-2-pyridyl]piperazin-1-yl]sulfonylphenyl]benzamide] | 1.9 µg/mL (≈ 3.09 µM) | 3.8 µg/mL (≈ 6.17 µM)
CC(F)(F)c1cc(Cl)nc(N2CCN(S(=O)(=O)c3ccc(NC(=O)c4ccc(CCNCCCN)cc4)cc3)CC2)c1 [Example 017, 4-[2-(3-Aminopropylamino)ethyl]-N-[4-[4-[6-chloro-4-(1,1-difluoroethyl)-2-pyridyl]piperazin-1-yl]sulfonylphenyl]benzamide] | 0.97 µg/mL (≈ 1.56 µM) | 0.97 µg/mL (≈ 1.56 µM)
Cc1cc(C(F)(F)F)cc(N2CCN(S(=O)(=O)c3ccc(NC(=O)c4cccc(CNCCCN)c4)cc3)CC2)n1 [Example 018, 3-[(3-Aminopropylamino)methyl]-N-[4-[4-[6-methyl-4-(trifluoromethyl)-2-pyridyl]piperazin-1-yl]sulfonylphenyl]benzamide] | 0.64 µg/mL (≈ 1.08 µM) | 2.6 µg/mL (≈ 4.4 µM)
COC(=O)c1cc(Cl)nc(N2CCN(S(=O)(=O)c3ccc(NC(=O)c4cccc(CNCCCN)c4)cc3)CC2)c1 [Example 019, Methyl 2-[4-[4-[[3-[(3-aminopropylamino)methyl]benzoyl]amino]phenyl]sulfonylpiperazin-1-yl]-6-chloro-pyridine-4-carboxylate] | 2.6 µg/mL (≈ 4.33 µM) | 5.2 µg/mL (≈ 8.65 µM)
CC1CN(c2cc(C(F)(F)F)cc(Cl)n2)CCN1S(=O)(=O)c1ccc(NC(=O)c2cccc(CNCCCN)c2)cc1 (centres unmarked) [Example 021, 3-[(3-Aminopropylamino)methyl]-N-[4-[4-[6-chloro-4-(trifluoromethyl)-2-pyridyl]-2-methyl-piperazin-1-yl]sulfonylphenyl]benzamide] | 3.9 µg/mL (≈ 6.24 µM) | 7.8 µg/mL (≈ 12.5 µM)
CC1CN(S(=O)(=O)c2ccc(NC(=O)c3cccc(CNCCCN)c3)cc2)CCN1c1cc(C(F)(F)F)cc(Cl)n1 (centres unmarked) [Example 022, 3-[(3-Aminopropylamino)methyl]-N-[4-[4-[6-chloro-4-(trifluoromethyl)-2-pyridyl]-3-methyl-piperazin-1-yl]sulfonylphenyl]benzamide] | 3.9 µg/mL (≈ 6.24 µM) | 3.9 µg/mL (≈ 6.24 µM)
NCCCNCc1cccc(C(=O)Nc2ccc(S(=O)(=O)N3CCN(c4cc(C(F)(F)F)cc(Cl)n4)C4CCC43)cc2)c1 (centres unmarked) [Example 023, 3-[(3-Aminopropylamino)methyl]-N-[4-[[5-[6-chloro-4-(trifluoromethyl)-2-pyridyl]-2,5-diazabicyclo[4.2.0]octan-2-yl]sulfonyl]phenyl]benzamide] | 4.2 µg/mL (≈ 6.59 µM) | 4.2 µg/mL (≈ 6.59 µM)
O=C1CC(CNCc2cccc(C(=O)Nc3ccc(S(=O)(=O)N4CCN(c5cc(C(F)(F)F)cc(Cl)n5)CC4)cc3)c2)CN1 (centres unmarked) [Example 085, N-[4-[4-[6-chloro-4-(trifluoromethyl)-2-pyridyl]piperazin-1-yl]sulfonylphenyl]-3-[[(5-oxopyrrolidin-3-yl)methylamino]methyl]benzamide] | 1.2 µg/mL (≈ 1.84 µM) | 
CN(C)C(=O)CCNCc1cccc(C(=O)Nc2ccc(S(=O)(=O)N3CCN(c4cc(C(F)(F)F)cc(Cl)n4)CC3)cc2)c1 [Example 086, N-[4-[4-[6-chloro-4-(trifluoromethyl)-2-pyridyl]piperazin-1-yl]sulfonylphenyl]-3-[[[3-(dimethylamino)-3-oxo-propyl]amino]methyl]benzamide] | 2.4 µg/mL (≈ 3.67 µM) | 
